Values quoted from earlier work as cited in publication PMC6337720 (Inorganic chemistry, 2018).

Settings: aerated CH3CN

- ΦΔ singlet oxygen quantum yield of the standard: 0.56
Structure (SMILES): F[P-](F)(F)(F)(F)F.F[P-](F)(F)(F)(F)F.[Ru+2].c1ccc(-c2ccccn2)nc1.c1ccc(-c2ccccn2)nc1.c1ccc(-c2ccccn2)nc1 [[Ru(bpy)3](PF6)2]
